Values quoted from earlier work as cited in patent EP0268928A2, “Safened pesticidal dispersion resin compositions for controlling soil borne pests and process for the preparation thereof” (priority 1986, dated 1988).

System: rats
Details: technical grade

Q: Which “acute oral LD50 value in rats” value does the source give for `CCOP(=S)(OCC)SCSCC` [phorate, 0,0-diethyl-S-(ethylthiomethyl)phosphorodithioate] here?
A: The value was 1.6-3.7 mg technical/kg.
